Experimental data taken from patent publication US11739064B2, “HDAC inhibitors and therapeutic methods using the same” (THE BOARD OF TRUSTEES OF THE UNIVERSITY OF ILLINOIS, priority 2015, dated 2023).

Key:
HDAC2 = HDAC2 (Homo sapiens, UniProt Q92769); test: In vitro HDAC inhibition assay, HDAC2; type: biochemical; settings: NI = No inhibition at a concentration of 50 pM (footnote b); read-out: HDAC isoform IC50, HDAC2
HDAC3/NcoR2 complex = HDAC3/NcoR2 complex (Homo sapiens, UniProt O15379); test: In vitro HDAC inhibition assay, HDAC3; type: biochemical; settings: NI = No inhibition at a concentration of 50 pM (footnote b); read-out: HDAC isoform IC50, HDAC3
Human HDAC6 = biological target: T1, Human HDAC6 (Homo sapiens, UniProt Q9UBN7); test: In vitro HDAC inhibition assay, HDAC6; type: biochemical; settings: read-out: HDAC isoform IC50, HDAC6
T1 construct: Full length with N-terminal GST tag, MW=159 kDa; GST (N); host or cells: baculovirus expression system, Sf9 cells
T1 sequence (Q9UBN7 1-1215): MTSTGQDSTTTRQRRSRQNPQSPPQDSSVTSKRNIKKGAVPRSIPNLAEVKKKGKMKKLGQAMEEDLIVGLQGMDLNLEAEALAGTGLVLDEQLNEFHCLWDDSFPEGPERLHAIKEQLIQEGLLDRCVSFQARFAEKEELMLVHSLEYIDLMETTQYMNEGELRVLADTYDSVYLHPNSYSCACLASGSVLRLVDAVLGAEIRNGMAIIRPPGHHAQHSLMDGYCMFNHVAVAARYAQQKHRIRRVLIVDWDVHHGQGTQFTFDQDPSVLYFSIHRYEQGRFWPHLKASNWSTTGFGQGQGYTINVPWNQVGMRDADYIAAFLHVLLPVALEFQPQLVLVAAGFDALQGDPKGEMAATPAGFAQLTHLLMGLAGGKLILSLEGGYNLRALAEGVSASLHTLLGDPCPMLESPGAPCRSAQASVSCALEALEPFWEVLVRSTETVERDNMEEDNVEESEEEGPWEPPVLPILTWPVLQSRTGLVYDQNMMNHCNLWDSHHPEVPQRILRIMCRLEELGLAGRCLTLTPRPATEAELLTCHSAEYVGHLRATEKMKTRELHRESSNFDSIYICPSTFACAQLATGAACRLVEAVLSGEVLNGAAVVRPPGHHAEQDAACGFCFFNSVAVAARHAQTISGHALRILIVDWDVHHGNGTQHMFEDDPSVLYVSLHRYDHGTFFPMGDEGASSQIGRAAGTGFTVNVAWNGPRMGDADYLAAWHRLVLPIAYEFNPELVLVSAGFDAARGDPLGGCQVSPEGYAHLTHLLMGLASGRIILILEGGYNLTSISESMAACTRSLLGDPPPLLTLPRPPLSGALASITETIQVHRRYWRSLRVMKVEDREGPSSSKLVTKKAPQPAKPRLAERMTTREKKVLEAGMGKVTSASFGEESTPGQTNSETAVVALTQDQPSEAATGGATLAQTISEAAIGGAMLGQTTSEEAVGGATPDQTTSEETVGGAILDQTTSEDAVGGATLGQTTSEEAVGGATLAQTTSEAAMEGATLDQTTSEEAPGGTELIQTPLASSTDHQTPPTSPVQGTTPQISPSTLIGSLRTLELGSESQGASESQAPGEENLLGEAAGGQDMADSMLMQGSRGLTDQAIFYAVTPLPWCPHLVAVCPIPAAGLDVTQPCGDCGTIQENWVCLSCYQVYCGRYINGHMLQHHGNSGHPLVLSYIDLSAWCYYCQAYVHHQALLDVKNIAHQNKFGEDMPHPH

HDAC10 = biological target: T2, HDAC10 (Homo sapiens, UniProt Q969S8); test: In vitro HDAC inhibition assay, HDAC10; type: biochemical; settings: NI = No inhibition at a concentration of 50 pM (footnote b); read-out: HDAC isoform IC50, HDAC10
T2 sequence (Q969S8 1-669): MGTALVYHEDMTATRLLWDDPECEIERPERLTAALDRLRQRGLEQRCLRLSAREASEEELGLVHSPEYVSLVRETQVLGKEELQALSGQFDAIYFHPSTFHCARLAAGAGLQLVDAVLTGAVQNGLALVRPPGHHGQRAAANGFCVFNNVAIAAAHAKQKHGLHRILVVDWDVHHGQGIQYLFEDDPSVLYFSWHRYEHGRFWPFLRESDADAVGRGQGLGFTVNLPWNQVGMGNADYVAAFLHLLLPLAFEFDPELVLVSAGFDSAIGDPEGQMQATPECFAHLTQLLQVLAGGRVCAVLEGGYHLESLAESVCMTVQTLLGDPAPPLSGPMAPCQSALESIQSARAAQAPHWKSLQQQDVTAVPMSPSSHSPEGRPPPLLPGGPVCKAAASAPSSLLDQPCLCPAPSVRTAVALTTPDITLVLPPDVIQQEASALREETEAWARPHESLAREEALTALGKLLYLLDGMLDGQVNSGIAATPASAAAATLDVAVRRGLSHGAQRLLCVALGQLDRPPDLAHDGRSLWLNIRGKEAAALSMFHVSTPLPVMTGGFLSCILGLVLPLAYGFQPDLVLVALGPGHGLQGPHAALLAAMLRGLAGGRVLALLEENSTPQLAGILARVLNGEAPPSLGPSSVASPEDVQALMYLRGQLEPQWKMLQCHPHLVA

BxPC-3 = test: In vitro growth inhibition of pancreatic cancer cell lines (Table 3), BxPC-3; type: cell-based; settings: Homo sapiens, 72 hours post-treatment, cell viability
Experimental: (§1) In Vitro growth inhibition of pancreatic cancer cell lines. Four of the present HDACIs were analyzed in the [3-(4,5-dimethylthiazol-2-yl)]-2,5-diphenyltetrazolium bromide (MTT) assay in four pancreatic cancer cell lines (Table 3).

Panc 04.03 = test: In vitro growth inhibition of pancreatic cancer cell lines (Table 3), Panc 04.03; type: cell-based; settings: Homo sapiens, 72 hours post-treatment, cell viability
Experimental: as §1

Mia PaCa-2 = test: In vitro growth inhibition of pancreatic cancer cell lines (Table 3), Mia PaCa-2; type: cell-based; settings: Homo sapiens, 72 hours post-treatment, cell viability
Experimental: as §1

PANC1 = test: In vitro growth inhibition of pancreatic cancer cell lines (Table 3), PANC1; type: cell-based; settings: Homo sapiens, PANC-1; 72 hours post-treatment, cell viability
Experimental: as §1

BxPC3 = test: In vitro growth inhibition (GI), MTS cell proliferation assay (Table 5), BxPC3; type: cell-based; settings: Homo sapiens, BXPC-3, 72 hours post-treatment
L3.6pl = test: In vitro growth inhibition (GI), MTS cell proliferation assay (Table 5), L3.6pl; type: cell-based; settings: Homo sapiens, 72 hours post-treatment
[1] = system: L3.6pl pancreatic cancer cells; test: Apoptosis by Hoechst staining and PARP cleavage; type: cell-based; settings: 10 μM, 24 hours after the initiation of treatment
Experimental: FIG. 3 contains photographs and Western immunoblots showing that HDAC inhibitors of present invention induce apoptosis on L3.6p1 pancreatic cancer cells. L3.6p1 pancreatic cancer cells were treated with 10 μM of compound 1, 2 or 4 for 24 hrs as indicated. Cells were collected and processed to Hoechst staining (upper panel) and cell lysates were prepared for Western immunoblotting (lower panel). 50 μg of proteins were separated by SDS-PAGE, transferred to PVDF membrane, and immunoblotted as indicated.

Human HDAC1 = Human HDAC1 (Homo sapiens, UniProt Q13547); test: In vitro HDAC inhibition assay, HDAC1; settings: read-out: HDAC isoform IC50, HDAC1; NI = No inhibition at a concentration of 50 pM (footnote b)
Chain of Human HDAC1 (Q13547 whole entry, canonical isoform): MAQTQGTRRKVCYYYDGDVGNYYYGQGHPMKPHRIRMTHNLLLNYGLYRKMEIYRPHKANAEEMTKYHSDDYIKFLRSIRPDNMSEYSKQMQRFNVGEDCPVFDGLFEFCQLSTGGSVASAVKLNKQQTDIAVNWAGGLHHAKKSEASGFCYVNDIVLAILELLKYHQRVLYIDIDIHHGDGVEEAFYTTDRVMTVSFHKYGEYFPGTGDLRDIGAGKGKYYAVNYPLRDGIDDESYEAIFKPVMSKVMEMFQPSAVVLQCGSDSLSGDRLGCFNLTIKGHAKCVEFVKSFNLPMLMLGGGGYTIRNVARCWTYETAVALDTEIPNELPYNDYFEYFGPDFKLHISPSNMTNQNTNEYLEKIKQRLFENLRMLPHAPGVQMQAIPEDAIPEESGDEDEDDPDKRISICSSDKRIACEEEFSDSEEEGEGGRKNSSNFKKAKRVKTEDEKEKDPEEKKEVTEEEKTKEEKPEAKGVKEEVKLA

Chain of HDAC3/NcoR2 complex (O15379 whole entry, canonical isoform): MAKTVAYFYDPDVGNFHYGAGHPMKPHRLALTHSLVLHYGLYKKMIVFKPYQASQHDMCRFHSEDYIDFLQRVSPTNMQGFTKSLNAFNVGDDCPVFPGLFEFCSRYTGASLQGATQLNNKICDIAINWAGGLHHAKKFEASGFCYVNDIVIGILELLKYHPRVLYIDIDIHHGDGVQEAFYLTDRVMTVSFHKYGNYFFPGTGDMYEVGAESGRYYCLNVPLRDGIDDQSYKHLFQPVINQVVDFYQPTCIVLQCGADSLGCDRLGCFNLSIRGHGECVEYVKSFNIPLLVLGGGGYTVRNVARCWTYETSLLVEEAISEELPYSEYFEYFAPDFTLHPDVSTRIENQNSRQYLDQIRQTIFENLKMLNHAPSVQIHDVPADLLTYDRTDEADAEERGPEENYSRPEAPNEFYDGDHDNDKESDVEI
Chain of HDAC3/NcoR2 complex (Q9Y618 395-489 partner limits assumed): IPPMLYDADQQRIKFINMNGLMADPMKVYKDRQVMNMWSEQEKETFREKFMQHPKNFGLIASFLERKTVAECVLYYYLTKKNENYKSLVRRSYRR
Chain of HDAC2 (Q92769 whole entry, canonical isoform): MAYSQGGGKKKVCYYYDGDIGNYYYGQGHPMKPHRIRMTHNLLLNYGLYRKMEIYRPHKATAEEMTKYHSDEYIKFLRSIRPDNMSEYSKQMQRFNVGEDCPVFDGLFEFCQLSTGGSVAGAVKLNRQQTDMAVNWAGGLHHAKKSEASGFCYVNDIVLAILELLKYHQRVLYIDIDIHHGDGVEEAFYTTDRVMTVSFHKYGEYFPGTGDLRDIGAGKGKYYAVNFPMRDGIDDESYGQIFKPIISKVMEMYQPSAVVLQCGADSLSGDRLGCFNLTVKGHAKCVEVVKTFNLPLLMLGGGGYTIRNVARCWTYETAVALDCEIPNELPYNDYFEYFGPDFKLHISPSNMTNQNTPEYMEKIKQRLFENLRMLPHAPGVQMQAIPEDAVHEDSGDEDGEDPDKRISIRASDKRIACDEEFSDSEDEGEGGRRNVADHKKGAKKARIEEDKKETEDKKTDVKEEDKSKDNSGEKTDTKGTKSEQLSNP

CCOC(=O)Nc1ccc(-c2csc(NC(=O)CCCc3cc(C(=O)NO)no3)n2)cc1 [Compound 4, (4-{2-[4-(3-Hydroxycarbamoyl-isoxazol-5-yl)-butyrylamino]-thiazol-4-yl}-phenyl)-carbamic acid ethyl ester]
IC50 (HDAC2): 834 nM | IC50 (HDAC3/NcoR2 complex): 354 nM | IC50 (Human HDAC6): 48.9 nM | IC50 (HDAC10): 323 nM | IC50 (BxPC-3): 15200 nM | IC50 (Panc 04.03): 13500 nM | IC50 (Mia PaCa-2): 1900 nM | IC50 (PANC1): 11000 nM | GI50 (BxPC3): 1700 nM | GI50 (L3.6pl): 1700 nM | Induction of apoptosis (Hoechst staining and PARP cleavage) [1]: effectively induced apoptosis | IC50 (Human HDAC1): 200 nM
